Measurements: US12350283B2, “Methods and compositions for treating motor neuron diseases” (UNIVERSITAT DE VALENCIA-ESTUDI GENERAL, priority 2019, dated 2025)

Columns and labels:
SOD1-G93A mice [1] = experiment: Neurological score (scale of Weydt et al.) in SOD1 mice; type: in vivo, mouse; conditions: scale 0-5
Protocol: (§1) EH301 [Nicotinamide riboside (NR) and pterostilbene (PT)] was administered orally: 185 mg of nicotinamide riboside and 30 mg of pterostilbene/Kg×day (Estrela J M, De La Rubia J E, Dellinger R W. Treating and preventing motor neuron disease using nicotinamide riboside. PCT/US 18/32932, 2018).
(§2) Dexamethasone (DXM) was administered i.p. following sequential 4 weeks-cycle along the experimental time: 1 mg/Kg×day (1st week), 0.5 mg/Kg×day (2nd week), 0.25 mg/Kg×day (3rd week), 0.0 mg/Kg×day ([…]). The dose of 1 mg/Kg was selected based on Kurkowska-Jastrzebska I, Litwin T, Joniec I, Ciesielska A, Przybyłkowski A, Członkowski A, Członkowska A. Dexamethasone protects against dopaminergic neurons damage in a mouse model of Parkinson's disease. Int Immunopharmacol. 2004 October; 4(10-11):1307-18. The cyclic dose regime was designed to optimize the therapeutic benefit causing minimal possible side effects.
(§3) Ibudilast (IB) was administered orally: 12 mg/Kg×day (Wang H, Mei Zl, Zhong K L, Hu M, Long Y, Miao M X, Li N, Yan T H, Hong H. Pretreatment with antiasthmatic drug ibudilast ameliorates Aβ 1-42-induced memory impairment and neurotoxicity in mice. Pharmacol Biochem Behav. 2014 September; 124:373-9).
(§4) Daily doses of NR, DXM and IB were administered together dissolved in 75 uL of physiological saline. PT was present in the chow of laboratory animals. The PT dose was adjusted based on the animal weight and the amount of food ingested per day.
This neurological score is based on the scale of Weydt et al. (Weydt, P., Hong, S. Y., Kliot, M., Moller, T., 2003. Assessing disease onset and progression in the SOD1 mouse model of ALS. NeuroReport 14, 1051-1054). […] When the animals reach a score of “4”, the access to food and water will be facilitated by placing food pellets on the cage floor to all transgenic mice. Reaching a score of “5”, the animals will be euthanized for ethical reasons. Onset is defined as the earliest time when the mice show symptoms (score <4). Changes over time in the different groups were monitored weekly.
(§5) • Data are presented as mean values f SD for the number of different experiments. • Statistical analyses were performed using Student's t-test. • P<0.05 and **P<0.01 comparing all SOD1 groups versus WT (wild type). • ^+P<0.05 and ^++P<0.01 comparing all SOD1 groups treated with EH301, DXM, IB or their combinations versus SOD1 untreated controls. • ^aP<0.05 and ^aaP<0.01 comparing SOD1+EH301+DXM or SOD1+EH301+IB groups versus SOD1+EH301. • ^bP<0.05 and ^bbP<0.01 comparing SOD1+EH301+DXM or SOD1+EH301+IB groups versus SOD1+DXM • ^cP<0.05 and ^ccP<0.01 comparing SOD1+EH301+DXM or SOD1+EH301+IB groups versus SOD1+IB

SOD1-G93A mice [2] = experiment: Rotarod test in SOD1 mice; type: in vivo, mouse; conditions: for Rotarod test (maximum period on rotating axle): SOD1 mice, limit 1200 seconds, mean
Protocol: as §1, §2, §3, §4
Functions of the test include evaluating balance, grip strength and motor coordination of the subjects; especially in testing the effect of experimental drugs. For this test (Rota Rod, Harvard Apparatus, Holliston, MA) each animal was given three trials and the maximum period (seconds) that it could remain on a rotating axle (3.5 cm diameter; speed of rotation: 15 rpm) without falling was measured. Each mouse was given up to three attempts for an arbitrary limit of 1200 seconds and the longest period was recorded. Changes over time in the different groups were monitored weekly.
as §5

SOD1-G93A mice [3] = experiment: Survival of SOD1 G93A mice (Kaplan-Meier); type: in vivo, mouse; conditions: for Survival time (surviving mice per group): SOD1 mice
Excerpt: Mice hemizygous for SOD1-G93A (also called G93A-SOD1) transgene are viable and fertile, with transgenic expression of a G93A mutant form of human SOD1. This founder line (often referred to as G1H) is reported to have a high transgene copy number. […] Motor neuron degeneration has been associated with function and/or degeneration of astrocytes, the major glial cell type of the nervous system. Transgenic mice have an abbreviated life span: 50% survive at 157.1+/−9.3 days (in contrast to the mixed B6SJL background where 50% survival is observed at 128.9+/−9.1 days). Female hemizygotes are poor breeders, and rarely produce more than one litter before the onset of disease. […] The pattern of gene expression in SOD1G93A activated microglia represents a unique ALS-specific signature. These SOD1-G93A (also called G93A-SOD1) transgenic mice us thus useful in studying neuromuscular disorders, including Amyotrophic Lateral Sclerosis.
The SOD1-G93A transgene was designed with a mutant human SOD1 gene (harboring a single amino acid substitution of glycine to alanine at codon 93) driven by its endogenous human SOD1 promoter. This transgene was injected into fertilized B6SJLF1 mouse eggs and founder animals were obtained. Transgenic mice on a mixed B6SJL genetic background were sent to The Jackson Laboratory (as Stock No. 002726). Upon arrival, some mice were backcrossed to C57BL/6J for at least 10 generations to generate this congenic strain (Stock No. 004435). The backcross was completed in July 2002.
as §1, §2, §3, §4, §5

FUS-R521C mice = experiment: Survival of FUS-R521C mice; type: in vivo, mouse
Protocol: FUS-R521C mice (ALS model; transgene injected into B6SJL oocytes. Maintained on C57BL/6, therefore subsequent generations have a higher percentage of C57BL/6) were selected for methods examining the effects of the addition of acetylcysteine.
Acetylcysteine (NAC) was administered intraperitoneally (IP): 100 mg/kg per day, beginning on week 30, in experiments examining the effect of the addition of NAC.

[4] = after oral administration; cited from earlier work
[5] = SOD1-G93A mice, versus control untreated

C[C@@H]1C[C@H]2[C@@H]3CCC4=CC(=O)C=C[C@]4(C)[C@@]3(F)[C@@H](O)C[C@]2(C)[C@@]1(O)C(=O)CO [DXM, Dexamethasone]
Neurological score (SOD1-G93A mice [1]; week 10, mean): 0
Neurological score (SOD1-G93A mice [1]; week 11, mean): 0
Neurological score (SOD1-G93A mice [1]; week 12, mean): 0
Neurological score (SOD1-G93A mice [1]; week 13, mean): 0
Neurological score (SOD1-G93A mice [1]; week 14, mean): 0.50
Neurological score (SOD1-G93A mice [1]; week 15, mean): 0.70
Neurological score (SOD1-G93A mice [1]; week 16, mean): 1
Neurological score (SOD1-G93A mice [1]; week 17, mean): 1
Neurological score (SOD1-G93A mice [1]; week 18, mean): 1.60
Neurological score (SOD1-G93A mice [1]; week 19, mean): 2.50
Neurological score (SOD1-G93A mice [1]; week 20, mean): 3
Neurological score (SOD1-G93A mice [1]; week 21, mean): 3.40
Neurological score (SOD1-G93A mice [1]; week 22, mean): 4
Rotarod test (maximum period on rotating axle) (SOD1-G93A mice [2]; week 10, 15 rpm): 1200 s
Rotarod test (maximum period on rotating axle) (SOD1-G93A mice [2]; week 11, 15 rpm): 1200 s
Rotarod test (maximum period on rotating axle) (SOD1-G93A mice [2]; week 12, 15 rpm): 1200 s
Rotarod test (maximum period on rotating axle) (SOD1-G93A mice [2]; week 13, 15 rpm): 1200 s
Rotarod test (maximum period on rotating axle) (SOD1-G93A mice [2]; week 14, 15 rpm): 1200 s
Rotarod test (maximum period on rotating axle) (SOD1-G93A mice [2]; week 15, 15 rpm): 1130 s
Rotarod test (maximum period on rotating axle) (SOD1-G93A mice [2]; week 16, 15 rpm): 1045 s
Rotarod test (maximum period on rotating axle) (SOD1-G93A mice [2]; week 17, 15 rpm): 820 s
Rotarod test (maximum period on rotating axle) (SOD1-G93A mice [2]; week 18, 15 rpm): 336 s
Rotarod test (maximum period on rotating axle) (SOD1-G93A mice [2]; week 19, 15 rpm): 225 s
Rotarod test (maximum period on rotating axle) (SOD1-G93A mice [2]; week 20, 15 rpm): 161 s
Rotarod test (maximum period on rotating axle) (SOD1-G93A mice [2]; week 21, 15 rpm): 52 s
Rotarod test (maximum period on rotating axle) (SOD1-G93A mice [2]; week 22, 15 rpm): 0 s
Survival time (surviving mice per group) (SOD1-G93A mice [3]; week 10): 10
Survival time (surviving mice per group) (SOD1-G93A mice [3]; week 11): 10
Survival time (surviving mice per group) (SOD1-G93A mice [3]; week 12): 9
Survival time (surviving mice per group) (SOD1-G93A mice [3]; week 13): 9
Survival time (surviving mice per group) (SOD1-G93A mice [3]; week 14): 9
Survival time (surviving mice per group) (SOD1-G93A mice [3]; week 15): 9
Survival time (surviving mice per group) (SOD1-G93A mice [3]; week 16): 9
Survival time (surviving mice per group) (SOD1-G93A mice [3]; week 17): 9
Survival time (surviving mice per group) (SOD1-G93A mice [3]; week 18): 9
Survival time (surviving mice per group) (SOD1-G93A mice [3]; week 19): 9
Survival time (surviving mice per group) (SOD1-G93A mice [3]; week 20): 7
Survival time (surviving mice per group) (SOD1-G93A mice [3]; week 21): 4
Survival time (surviving mice per group) (SOD1-G93A mice [3]; week 22): 1
Survival time (surviving mice per group) (SOD1-G93A mice [3]; week 23): 0

CC(C)C(=O)c1c(C(C)C)nn2ccccc12 [IBU, 2-methyl-1-(2-(1-methylethyl)pyrazolo(1,5-a)pyridin-3-yl)1-propanone]
Neurological score (SOD1-G93A mice [1]; week 10, mean): 0
Neurological score (SOD1-G93A mice [1]; week 11, mean): 0
Neurological score (SOD1-G93A mice [1]; week 12, mean): 0
Neurological score (SOD1-G93A mice [1]; week 13, mean): 0
Neurological score (SOD1-G93A mice [1]; week 14, mean): 0
Neurological score (SOD1-G93A mice [1]; week 15, mean): 0.30
Neurological score (SOD1-G93A mice [1]; week 16, mean): 0.75
Neurological score (SOD1-G93A mice [1]; week 17, mean): 1
Neurological score (SOD1-G93A mice [1]; week 18, mean): 1.50
Neurological score (SOD1-G93A mice [1]; week 19, mean): 2.20
Neurological score (SOD1-G93A mice [1]; week 20, mean): 3
Neurological score (SOD1-G93A mice [1]; week 21, mean): 3.70
Neurological score (SOD1-G93A mice [1]; week 22, mean): 4
motor coordination / motor-neuron dependent functions (in words) (SOD1-G93A mice [2]; [5]): some improvement
Rotarod test (maximum period on rotating axle) (SOD1-G93A mice [2]; week 10, 15 rpm): 1200 s
Rotarod test (maximum period on rotating axle) (SOD1-G93A mice [2]; week 11, 15 rpm): 1200 s
Rotarod test (maximum period on rotating axle) (SOD1-G93A mice [2]; week 12, 15 rpm): 1200 s
Rotarod test (maximum period on rotating axle) (SOD1-G93A mice [2]; week 13, 15 rpm): 1200 s
Rotarod test (maximum period on rotating axle) (SOD1-G93A mice [2]; week 14, 15 rpm): 1200 s
Rotarod test (maximum period on rotating axle) (SOD1-G93A mice [2]; week 15, 15 rpm): 1200 s
Rotarod test (maximum period on rotating axle) (SOD1-G93A mice [2]; week 16, 15 rpm): 1200 s
Rotarod test (maximum period on rotating axle) (SOD1-G93A mice [2]; week 17, 15 rpm): 926 s
Rotarod test (maximum period on rotating axle) (SOD1-G93A mice [2]; week 18, 15 rpm): 544 s
Rotarod test (maximum period on rotating axle) (SOD1-G93A mice [2]; week 19, 15 rpm): 197 s
Rotarod test (maximum period on rotating axle) (SOD1-G93A mice [2]; week 20, 15 rpm): 102 s
Rotarod test (maximum period on rotating axle) (SOD1-G93A mice [2]; week 21, 15 rpm): 30 s
Rotarod test (maximum period on rotating axle) (SOD1-G93A mice [2]; week 22, 15 rpm): 0 s
survival (FUS-R521C mice; FIGS. 3A-3C, end of study 45 weeks): about 30 weeks
mean survival (SOD1-G93A mice [3]; SOD1-G93A mice treated from day 50): 137 days
survival (in words) (SOD1-G93A mice [3]; [5]): some improvement
Survival time (surviving mice per group) (SOD1-G93A mice [3]; week 10): 10
Survival time (surviving mice per group) (SOD1-G93A mice [3]; week 11): 10
Survival time (surviving mice per group) (SOD1-G93A mice [3]; week 12): 10
Survival time (surviving mice per group) (SOD1-G93A mice [3]; week 13): 10
Survival time (surviving mice per group) (SOD1-G93A mice [3]; week 14): 10
Survival time (surviving mice per group) (SOD1-G93A mice [3]; week 15): 10
Survival time (surviving mice per group) (SOD1-G93A mice [3]; week 16): 10
Survival time (surviving mice per group) (SOD1-G93A mice [3]; week 17): 10
Survival time (surviving mice per group) (SOD1-G93A mice [3]; week 18): 10
Survival time (surviving mice per group) (SOD1-G93A mice [3]; week 19): 8
Survival time (surviving mice per group) (SOD1-G93A mice [3]; week 20): 4
Survival time (surviving mice per group) (SOD1-G93A mice [3]; week 21): 3
Survival time (surviving mice per group) (SOD1-G93A mice [3]; week 22): 1
Survival time (surviving mice per group) (SOD1-G93A mice [3]; week 23): 0

CC(=O)N[C@@H](CS)C(=O)O [NAC, N-acetylcysteine]
half-life [4]: about 6 hours
time to max. plasma level [4]: 2 to 3 h
survival (FUS-R521C mice; FIG. 3C): about 32 days
